Earlier results as cited in US8158161B2, “Methods and pharmaceutical compositions useful for treating psoriasis” (S.U.L.V.E. Ltd., priority 2005, dated 2012).

Tested on: K562 cells
Details: Leoni 1997

Row | Structure (SMILES) | rank among isothiocyanates tested as inhibitors of leukemic cell growth
1 | C=CCN=C=S [2-Propenyl-isothiocyanate] | most potent inhibitors
2 | S=C=NCc1ccccc1 [Benzyl-isothiocyanate] | most potent inhibitors
